According to patent US10168342B2, “Lipid probes and uses thereof” (THE SCRIPPS RESEARCH INSTITUTE, priority 2015, dated 2019):

Tests used:
Experiment in all cases: isoTOP-ABPP mapping of AEA-DA-modified peptides in Neuro2a cells
Assay type in all cases: cell-based
[1] = target: T1, AEA-DA-modified peptides in Neuro2a cells (Mus musculus, UniProt Q9Z2Z6); details: AEA-DA-modified peptide SLC25A20 Q9Z2Z6 179-195, SEQ ID NO 103; probe 100 μM, 12 replicates
T1 construct: endogenous in cells; host or cells: Neuro2a

[2] = target: T2, AEA-DA-modified peptides in Neuro2a cells (Mus musculus, UniProt Q9D771); details: AEA-DA-modified peptide TMEM206 Q9D771 247-260, SEQ ID NO 113; probe 100 μM, 12 replicates
T2 construct: endogenous in cells; host or cells: Neuro2a

[3] = target: T3, AEA-DA-modified peptides in Neuro2a cells (Mus musculus, UniProt Q99K48); details: AEA-DA-modified peptide NONO Q99K48 122-138, SEQ ID NO 69; probe 100 μM, 12 replicates
T3 construct: endogenous in cells; host or cells: Neuro2a

[4] = target: T4, AEA-DA-modified peptides in Neuro2a cells (Mus musculus, UniProt O55234); details: AEA-DA-modified peptide PSMB5 O55234 141-151, SEQ ID NO 91; probe 100 μM, 12 replicates
T4 construct: endogenous in cells; host or cells: Neuro2a

[5] = target: T5, AEA-DA-modified peptides in Neuro2a cells (Mus musculus, UniProt Q60716); details: AEA-DA-modified peptide P4HA2 Q60716 177-197, SEQ ID NO 76; probe 100 μM, 12 replicates
T5 construct: endogenous in cells; host or cells: Neuro2a

[6] = target: T6, AEA-DA-modified peptides in Neuro2a cells (Mus musculus, UniProt Q62351); details: AEA-DA-modified peptide TFRC Q62351 7-23, SEQ ID NO 110; probe 100 μM, 12 replicates
T6 construct: endogenous in cells; host or cells: Neuro2a

[7] = target: T7, AEA-DA-modified peptides in Neuro2a cells (Mus musculus, UniProt P47802); details: AEA-DA-modified peptide MTX1 P47802 89-104, SEQ ID NO 63; probe 100 μM, 12 replicates
T7 construct: endogenous in cells; host or cells: Neuro2a

[8] = target: T8, AEA-DA-modified peptides in Neuro2a cells (Mus musculus, UniProt P70333); details: AEA-DA-modified peptide HNRNPH 2 P70333 50-69, SEQ ID NO 50; probe 100 μM, 12 replicates
T8 construct: endogenous in cells; host or cells: Neuro2a

[9] = target: T9, AEA-DA-modified peptides in Neuro2a cells (Mus musculus, UniProt P56812); details: AEA-DA-modified peptide PDCD5 P56812 69-80, SEQ ID NO 80; probe 100 μM, 12 replicates
T9 construct: endogenous in cells; host or cells: Neuro2a

[10] = target: T10, AEA-DA-modified peptides in Neuro2a cells (Mus musculus, UniProt P97311); details: AEA-DA-modified peptide MCM6 P97311 59-86, SEQ ID NO 59; probe 100 μM, 12 replicates
T10 construct: endogenous in cells; host or cells: Neuro2a

[11] = target: T11, AEA-DA-modified peptides in Neuro2a cells (Mus musculus, UniProt Q8R0X7); details: probe 100 μM, 12 replicates
T11 construct: endogenous in cells; host or cells: Neuro2a

[12] = target: T12, AEA-DA-modified peptides in Neuro2a cells (Mus musculus, UniProt P42125); details: AEA-DA-modified peptide ECI1 P42125 276-284, SEQ ID NO 34; probe 100 μM, 12 replicates
T12 construct: endogenous in cells; host or cells: Neuro2a

T11 sequence (Q8R0X7 whole entry): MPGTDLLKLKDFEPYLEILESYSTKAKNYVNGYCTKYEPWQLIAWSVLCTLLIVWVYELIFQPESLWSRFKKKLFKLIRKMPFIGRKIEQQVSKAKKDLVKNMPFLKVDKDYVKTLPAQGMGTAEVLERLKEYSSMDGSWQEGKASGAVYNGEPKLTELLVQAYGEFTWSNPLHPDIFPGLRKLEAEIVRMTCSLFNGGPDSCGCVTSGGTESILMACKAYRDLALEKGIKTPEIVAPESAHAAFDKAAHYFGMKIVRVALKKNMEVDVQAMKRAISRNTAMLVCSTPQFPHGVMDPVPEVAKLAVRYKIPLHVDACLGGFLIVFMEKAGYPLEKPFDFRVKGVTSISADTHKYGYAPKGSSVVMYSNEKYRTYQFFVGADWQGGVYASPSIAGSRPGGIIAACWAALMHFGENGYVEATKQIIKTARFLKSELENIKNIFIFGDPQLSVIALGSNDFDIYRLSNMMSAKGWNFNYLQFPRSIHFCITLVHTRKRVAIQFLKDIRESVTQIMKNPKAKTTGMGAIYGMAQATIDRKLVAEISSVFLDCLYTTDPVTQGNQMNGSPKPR
T10 sequence (P97311 whole entry): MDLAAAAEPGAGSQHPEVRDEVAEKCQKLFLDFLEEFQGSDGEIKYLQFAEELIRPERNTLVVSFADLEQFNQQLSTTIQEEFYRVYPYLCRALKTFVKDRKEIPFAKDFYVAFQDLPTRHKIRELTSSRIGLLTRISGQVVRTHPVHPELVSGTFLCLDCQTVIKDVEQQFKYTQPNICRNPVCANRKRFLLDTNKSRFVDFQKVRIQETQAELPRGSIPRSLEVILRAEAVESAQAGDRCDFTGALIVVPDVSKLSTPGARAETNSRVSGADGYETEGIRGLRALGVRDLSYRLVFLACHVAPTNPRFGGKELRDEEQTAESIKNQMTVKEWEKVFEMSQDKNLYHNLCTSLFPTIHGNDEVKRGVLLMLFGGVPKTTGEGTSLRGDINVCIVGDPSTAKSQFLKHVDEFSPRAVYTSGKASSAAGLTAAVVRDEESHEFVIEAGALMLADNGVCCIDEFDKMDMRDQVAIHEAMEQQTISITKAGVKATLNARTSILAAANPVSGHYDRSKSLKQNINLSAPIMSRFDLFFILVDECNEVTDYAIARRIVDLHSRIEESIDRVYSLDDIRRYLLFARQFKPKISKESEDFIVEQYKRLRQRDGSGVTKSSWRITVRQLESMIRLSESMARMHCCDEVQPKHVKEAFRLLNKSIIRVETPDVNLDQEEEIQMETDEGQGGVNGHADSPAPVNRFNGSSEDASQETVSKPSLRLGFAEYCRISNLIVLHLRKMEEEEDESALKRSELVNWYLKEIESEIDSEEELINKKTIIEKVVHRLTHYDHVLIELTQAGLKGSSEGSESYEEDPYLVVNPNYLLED
T1 sequence (Q9Z2Z6 whole entry): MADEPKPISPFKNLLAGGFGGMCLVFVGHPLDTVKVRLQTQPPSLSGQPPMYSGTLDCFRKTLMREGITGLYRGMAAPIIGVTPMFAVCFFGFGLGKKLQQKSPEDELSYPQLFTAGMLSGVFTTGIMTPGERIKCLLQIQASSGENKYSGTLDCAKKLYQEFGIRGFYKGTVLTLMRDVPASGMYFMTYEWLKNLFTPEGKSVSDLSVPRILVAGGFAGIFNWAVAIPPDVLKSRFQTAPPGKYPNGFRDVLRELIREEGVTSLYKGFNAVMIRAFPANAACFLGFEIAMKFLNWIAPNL
T3 sequence (Q99K48 whole entry): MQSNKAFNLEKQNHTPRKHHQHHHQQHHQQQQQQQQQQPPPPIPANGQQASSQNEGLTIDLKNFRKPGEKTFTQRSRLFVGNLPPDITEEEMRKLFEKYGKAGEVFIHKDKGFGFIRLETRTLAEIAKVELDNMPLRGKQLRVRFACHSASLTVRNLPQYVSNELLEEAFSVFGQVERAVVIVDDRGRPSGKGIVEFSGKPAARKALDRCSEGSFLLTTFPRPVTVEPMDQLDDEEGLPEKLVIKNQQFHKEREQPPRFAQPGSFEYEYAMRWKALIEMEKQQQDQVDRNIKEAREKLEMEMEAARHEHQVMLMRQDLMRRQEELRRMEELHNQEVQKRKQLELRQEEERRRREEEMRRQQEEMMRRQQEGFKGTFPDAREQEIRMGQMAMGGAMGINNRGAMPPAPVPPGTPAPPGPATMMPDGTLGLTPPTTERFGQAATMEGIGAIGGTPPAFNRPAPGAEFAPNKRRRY
T9 sequence (P56812 whole entry): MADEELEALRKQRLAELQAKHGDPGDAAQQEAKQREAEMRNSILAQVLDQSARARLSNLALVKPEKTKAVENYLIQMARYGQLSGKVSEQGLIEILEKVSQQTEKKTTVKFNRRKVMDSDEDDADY
T2 sequence (Q9D771 whole entry): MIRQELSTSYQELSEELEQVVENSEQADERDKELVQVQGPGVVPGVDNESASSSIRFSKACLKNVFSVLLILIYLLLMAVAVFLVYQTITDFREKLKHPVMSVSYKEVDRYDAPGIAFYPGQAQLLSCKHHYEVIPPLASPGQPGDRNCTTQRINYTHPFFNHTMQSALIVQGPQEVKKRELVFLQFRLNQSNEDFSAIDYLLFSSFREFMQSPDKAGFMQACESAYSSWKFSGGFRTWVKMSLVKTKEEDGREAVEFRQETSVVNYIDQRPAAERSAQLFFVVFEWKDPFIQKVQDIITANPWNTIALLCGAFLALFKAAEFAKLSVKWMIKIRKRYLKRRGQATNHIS
T8 sequence (P70333 whole entry): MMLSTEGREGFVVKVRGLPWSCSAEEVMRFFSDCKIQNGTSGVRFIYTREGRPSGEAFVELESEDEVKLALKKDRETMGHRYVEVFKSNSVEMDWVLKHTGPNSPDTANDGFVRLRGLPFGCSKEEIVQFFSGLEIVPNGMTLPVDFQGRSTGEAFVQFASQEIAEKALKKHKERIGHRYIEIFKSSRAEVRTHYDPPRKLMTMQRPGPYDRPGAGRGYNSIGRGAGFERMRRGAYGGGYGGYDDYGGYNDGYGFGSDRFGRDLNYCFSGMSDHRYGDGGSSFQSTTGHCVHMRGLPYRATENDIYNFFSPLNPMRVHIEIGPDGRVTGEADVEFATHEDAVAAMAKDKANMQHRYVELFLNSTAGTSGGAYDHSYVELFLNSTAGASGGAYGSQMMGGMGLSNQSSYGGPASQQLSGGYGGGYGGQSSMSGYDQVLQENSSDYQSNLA
T5 sequence (Q60716 24-537): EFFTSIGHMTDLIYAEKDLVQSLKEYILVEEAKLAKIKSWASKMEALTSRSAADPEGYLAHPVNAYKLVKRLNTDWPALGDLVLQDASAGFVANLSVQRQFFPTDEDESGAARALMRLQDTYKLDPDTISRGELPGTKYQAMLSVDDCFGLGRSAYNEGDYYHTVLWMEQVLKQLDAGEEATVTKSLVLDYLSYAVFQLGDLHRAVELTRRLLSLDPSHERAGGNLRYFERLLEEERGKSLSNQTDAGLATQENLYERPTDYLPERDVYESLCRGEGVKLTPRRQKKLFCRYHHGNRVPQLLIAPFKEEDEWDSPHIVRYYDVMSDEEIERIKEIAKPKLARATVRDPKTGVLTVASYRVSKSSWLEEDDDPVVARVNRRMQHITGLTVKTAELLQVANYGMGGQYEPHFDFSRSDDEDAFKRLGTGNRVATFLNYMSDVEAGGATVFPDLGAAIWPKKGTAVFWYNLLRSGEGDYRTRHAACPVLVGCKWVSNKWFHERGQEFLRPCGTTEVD
T7 sequence (P47802 whole entry): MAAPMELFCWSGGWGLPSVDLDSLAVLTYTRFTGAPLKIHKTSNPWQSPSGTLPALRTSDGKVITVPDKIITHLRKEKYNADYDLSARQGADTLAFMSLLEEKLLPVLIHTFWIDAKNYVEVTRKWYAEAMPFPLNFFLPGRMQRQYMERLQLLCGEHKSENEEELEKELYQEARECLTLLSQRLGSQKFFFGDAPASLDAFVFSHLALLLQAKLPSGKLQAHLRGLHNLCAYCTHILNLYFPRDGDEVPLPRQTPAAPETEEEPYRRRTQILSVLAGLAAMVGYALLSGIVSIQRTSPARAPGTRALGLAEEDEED
T4 sequence (O55234 60-264): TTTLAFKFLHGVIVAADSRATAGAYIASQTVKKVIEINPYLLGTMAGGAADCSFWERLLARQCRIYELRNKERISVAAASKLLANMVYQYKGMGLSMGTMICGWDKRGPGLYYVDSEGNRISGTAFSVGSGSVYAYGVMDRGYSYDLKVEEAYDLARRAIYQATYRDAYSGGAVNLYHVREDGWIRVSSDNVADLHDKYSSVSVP
T6 sequence (Q62351 whole entry): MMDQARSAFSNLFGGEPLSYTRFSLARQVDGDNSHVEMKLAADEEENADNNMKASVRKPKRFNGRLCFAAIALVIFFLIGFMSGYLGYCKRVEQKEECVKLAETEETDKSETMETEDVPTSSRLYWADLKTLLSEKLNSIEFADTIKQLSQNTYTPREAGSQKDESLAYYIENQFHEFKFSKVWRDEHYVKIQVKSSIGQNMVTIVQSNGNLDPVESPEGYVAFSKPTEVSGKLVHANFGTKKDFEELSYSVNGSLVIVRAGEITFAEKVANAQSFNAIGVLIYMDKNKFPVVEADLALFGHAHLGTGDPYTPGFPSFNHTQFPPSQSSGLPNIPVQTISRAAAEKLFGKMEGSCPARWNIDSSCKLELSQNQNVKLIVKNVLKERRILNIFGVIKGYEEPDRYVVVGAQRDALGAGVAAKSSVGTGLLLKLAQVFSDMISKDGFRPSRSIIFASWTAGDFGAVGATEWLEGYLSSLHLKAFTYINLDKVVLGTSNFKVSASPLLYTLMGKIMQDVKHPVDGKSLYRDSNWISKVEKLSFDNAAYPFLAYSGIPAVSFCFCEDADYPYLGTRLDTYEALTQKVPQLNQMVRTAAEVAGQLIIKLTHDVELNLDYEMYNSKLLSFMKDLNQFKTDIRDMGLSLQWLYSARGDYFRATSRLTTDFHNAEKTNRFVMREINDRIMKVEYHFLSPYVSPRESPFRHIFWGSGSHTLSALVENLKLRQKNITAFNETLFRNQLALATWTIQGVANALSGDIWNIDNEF

Compound `C#CCCCC1(CC/C=C\C/C=C\C/C=C\CCCC(=O)NCCO)N=N1` [AEA-DA, (5Z,8Z,11Z)-N-(2-hydroxyethyl)-14-(3-(pent-4-yn-1-yl)-3H-diazirin-3-yl)tetradeca-5,8,11-trienamide] has a Times observed [1] of 4, a Times observed [2] of 2 and a Times observed [3] of 3. For the same compound, the Times observed [4] was 11, the Times observed [5] was 3 and the Times observed [6] was 2. For the same compound, the Times observed [7] was 2, the Times observed [8] was 9 and the Times observed [9] was 5. For the same compound, the Times observed [10] was 3, the Times observed ([11]; AEA-DA-modified peptide SGPL1 Q8R0X7 9-26, SEQ ID NO 100) was 4 and the Times observed ([11]; AEA-DA-modified peptide SGPL1 Q8R0X7 519-536, SEQ ID NO 99) was 12. For the same compound, the Times observed [12] was 2.
